Assay [1] has as its target IDH1 R132H (Homo sapiens, UniProt O75874, R132H). Description: Assay for IDH1 R132H inhibitors (NADPH/aKG, resazurin detection). Type of assay: biochemical. The conditions noted are these: enzyme assay of Example 12; read-out: IDH1R132H IC50. An outline of the steps:
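Read-out is resorufin fluorescence (Ex544/Em590) 5 min after adding a 30 μM resazurin detection mix. Before that, mutant enzyme (0.2 μg/ml in its mix) ran 50 min at room temperature with compound, 8 uM NADPH and 2 mM aKG (mix levels) in Tris pH 7.5 with NaCl, MgCl2, BSA.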
Background: The colour change of resazurin is a common sign of viable cells or microbes.

The subject of assay [2] is HT1080 cells. Description: Cellular assay for IDH1m inhibitors: inhibition of 2-HG production (LC-MS, 48 hours) in HT1080 cells. The class given is cell-based. The conditions noted are these: Homo sapiens, HT-1080; inhibition of 2-HG production, HT1080 cells; read-out: HT1080 IC50. The procedure:
Cells (e.g., HT1080 or U87MG) and are grown in T125 flasks in DMEM containing 10% FBS, 1× penicillin/streptomycin and 500 ug/mL G418. They are harvested by trypsin and seeded into 96 well white bottom plates at a density of 5000 cell/well in 100 ul/well in DMEM with 10% FBS. No cells are plates in columns 1 and 12. Cells are incubated overnight at 37° C. in 5% CO2. The next day compounds are made up at 2× concentration and 100 ul are added to each cell well. The final concentration of DMSO is 0.2% and the DMSO control wells are plated in row G. The plates are then placed in the incubator for 48 hours. At 48 hours, 100 μl of media is removed from each well and analyzed by LC-MS for 2-HG concentrations. The cell plate is placed back in the incubator for another 24 hours. At 72 hours post compound addition, 10 mL/plate of Promega Cell Titer Glo reagent is thawed and mixed. The cell plate is removed from the incubator and allowed to equilibrate to room temperature. Then 100 ul of reagent is added to each well of media. The cell plate is then placed on an orbital shaker for 10 minutes and then allowed to sit at room temperature for 20 minutes. The plate is then read for luminescence with an integration time of 500 ms.
The IC50 for inhibition of 2-HG production (concentration of test compound to reduce 2HG production by 50% compared to control) in these two cell lines for various compounds of formula I is set forth in Table 4 above.

Sequence of IDH1 R132H (O75874 whole entry R132H): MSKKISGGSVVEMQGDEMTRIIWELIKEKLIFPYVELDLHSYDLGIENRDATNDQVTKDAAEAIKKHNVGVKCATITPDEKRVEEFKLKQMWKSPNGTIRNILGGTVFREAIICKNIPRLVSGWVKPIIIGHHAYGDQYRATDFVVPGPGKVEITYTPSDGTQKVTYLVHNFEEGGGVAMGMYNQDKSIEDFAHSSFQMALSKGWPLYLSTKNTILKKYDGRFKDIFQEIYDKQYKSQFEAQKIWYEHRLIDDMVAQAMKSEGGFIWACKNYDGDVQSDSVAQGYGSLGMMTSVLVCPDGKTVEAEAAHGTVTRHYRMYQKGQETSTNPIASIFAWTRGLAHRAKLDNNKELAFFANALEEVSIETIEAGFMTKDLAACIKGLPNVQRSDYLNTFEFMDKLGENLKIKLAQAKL

For the compound `C=Cc1ccc2c(-c3cc(C#N)c(N4CCN(C(=O)CCO)[C@H](C5CC5)C4)nc3C3CC3)cccc2n1` [Compound 569, (R)-6-cyclopropyl-2-(3-cyclopropyl-4-(3-hydroxypropanoyl)piperazin-1-yl)-5-(2-vinylquinolin-5-yl)nicotinonitrile], the IC50 in assay [1] and in assay [2] was less than 500 nM each time.
Take `C=Cc1ccc2c(-c3cc(C#N)c(N4CCN(C(=O)CCOC)[C@H](C5CC5)C4)nc3C3CC3)cccc2n1` [Compound 570, (R)-6-cyclopropyl-2-(3-cyclopropyl-4-(3-methoxypropanoyl)piperazin-1-yl)-5-(2-vinylquinolin-5-yl)nicotinonitrile]: the IC50 in assay [1] and in assay [2] was less than 500 nM in each case.
In the case of `C=Cc1cc(-c2cc(C#N)c(N3CCN(C(=O)CCO)[C@H](C4CC4)C3)nc2C2CC2)c2ccccc2n1` [Compound 571, (R)-6-cyclopropyl-2-(3-cyclopropyl-4-(3-hydroxypropanoyl)piperazin-1-yl)-5-(2-vinylquinolin-4-yl)nicotinonitrile], the IC50 in assay [1] and in assay [2] was less than 500 nM throughout.
For `C=Cc1cc(-c2cc(C#N)c(N3CCN(C(=O)CCO)C(C)C3)nc2C2CC2)ccn1` (stereo not shown) [Compound 572], the IC50 in assay [1] and in assay [2] was less than 500 nM each time.
Take `C=Cc1cc(-c2cc(C#N)c(N3CCN(C(=O)CCOC)[C@H](C4CC4)C3)nc2C2CC2)c2ccccc2n1` [Compound 574, (R)-6-cyclopropyl-2-(3-cyclopropyl-4-(3-methoxypropanoyl)piperazin-1-yl)-5-(2-vinylquinolin-4-yl)nicotinonitrile]: the IC50 in assay [1] and in assay [2] was less than 500 nM each time.
With `C=CC(=O)N1CCC=C(c2cc(C#N)c(N3CCN(C(=O)C4CC4)[C@H](C)C3)nc2C2CC2)C1` [Compound 575, (R)-5-(1-acryloyl-1,2,5,6-tetrahydropyridin-3-yl)-2-(4-(cyclopropanecarbonyl)-3-methylpiperazin-1-yl)-6-cyclopropylnicotinonitrile], the IC50 in assay [1] and in assay [2] was less than 500 nM throughout.
`C=CC(=O)N1CCCC(c2cc(C#N)c(N3CCN(C(=O)C4CC4)[C@H](C)C3)nc2C2CC2)C1` (stereo partly drawn) [Compound 576, 5-(1-acryloylpiperidin-3-yl)-2-((R)-4-(cyclopropanecarbonyl)-3-methylpiperazin-1-yl)-6-cyclopropylnicotinonitrile]: the IC50 (usually the concentration at which inhibition is half-maximal) in assay [1] is 500 to 1000 nM; in assay [2], less than 500 nM.
On to `C=Cc1ccc(Nc2cc(C#N)c(N3CCN(C(=O)CCO)[C@H](C)C3)nc2C2CC2)cn1` [Compound 577, (R)-6-cyclopropyl-2-(4-(3-hydroxypropanoyl)-3-methylpiperazin-1-yl)-5-((6-vinylpyridin-3-yl)amino)nicotinonitrile], for which the IC50 in assay [1] and in assay [2] was less than 500 nM throughout.
As for `C=Cc1cc(-c2cc(C#N)c(N3CCN(C(=O)C4CC4)[C@@H](C4CC4)C3)nc2C2CC2)ncn1` [Compound 578, (S)-2-(4-(cyclopropanecarbonyl)-3-cyclopropylpiperazin-1-yl)-6-cyclopropyl-5-(6-vinylpyrimidin-4-yl)nicotinonitrile], the IC50 in assay [1] and in assay [2] was less than 500 nM each time.
With `C[C@@H]1CN(c2nc(C3CC3)c(Nc3ccc(C#N)nc3)cc2C#N)CCN1C(=O)CCO` [Compound 582, (R)-5-((5-cyano-2-cyclopropyl-6-(4-(3-hydroxypropanoyl)-3-methylpiperazin-1-yl)pyridin-3-yl)amino)picolinonitrile], the IC50 in assay [1] was less than 500 nM; in assay [2] it was 1000 to 10000 nM.
The corresponding values for `Cc1cc2c(-c3cc(C#N)c(N4CCN(C(=O)CCO)[C@H](C)C4)nc3C3CC3)cccc2cn1` [Compound 588, (R)-6-cyclopropyl-2-(4-(3-hydroxypropanoyl)-3-methylpiperazin-1-yl)-5-(3-methylisoquinolin-5-yl)nicotinonitrile] are less than 500 nM and less than 500 nM.
Consider `C#CC(=O)N1CCC=C(c2cc(C#N)c(N3CCN(C(=O)C4CC4)[C@H](C)C3)nc2C2CC2)C1` [Compound 594, (R)-2-(4-(cyclopropanecarbonyl)-3-methylpiperazin-1-yl)-6-cyclopropyl-5-(1-propioloyl-1,2,5,6-tetrahydropyridin-3-yl)nicotinonitrile], for which the half-inhibitory concentration (IC50) in assay [1] and in assay [2] was less than 500 nM in each case.
For the compound `C=Cc1ccnc(-c2cc(C#N)c(N3CCN(C(=O)CCOC)[C@H](C)C3)nc2C2CC2)c1` [Compound 596, (R)-2′-cyclopropyl-6′-(4-(3-methoxypropanoyl)-3-methylpiperazin-1-yl)-4-vinyl-2,3′-bipyridine-5′-carbonitrile], the IC50 in assay [1] and in assay [2] was less than 500 nM in each case.
Take `C=C(C)c1cc(-c2cc(C#N)c(N3CCN(C(=O)CCOC)[C@H](C)C3)nc2C2CC2)ncn1` [Compound 598, (R)-6-cyclopropyl-2-(4-(3-methoxypropanoyl)-3-methylpiperazin-1-yl)-5-(6-(prop-1-en-2-yl)pyrimidin-4-yl)nicotinonitrile]: the values for the IC50 in assay [1] and in assay [2] were less than 500 nM and 500 to 1000 nM, respectively.
Regarding `C=CC(=O)N1CCOC(c2cc(C#N)c(N3CCN(C(=O)C4CC4)[C@H](C)C3)nc2C2CC2)C1` (stereo partly drawn) [Compound 600, 5-(4-acryloylmorpholin-2-yl)-2-((R)-4-(cyclopropanecarbonyl)-3-methylpiperazin-1-yl)-6-cyclopropylnicotinonitrile], the IC50 in assay [1] and in assay [2] was 500 to 1000 nM each time.
As for `C=C(F)c1cc(-c2cc(C#N)c(N3CCN(C(=O)CCOC)[C@H](C)C3)nc2C2CC2)ncn1` [Compound 602, (R)-6-cyclopropyl-5-(6-(1-fluorovinyl)pyrimidin-4-yl)-2-(4-(3-methoxypropanoyl)-3-methylpiperazin-1-yl)nicotinonitrile], the IC50 in assay [1] and in assay [2] was less than 500 nM each time.
With `C=Cc1cnc2c(/C=C/c3cnc4c(-c5cc(C#N)c(N6CCN(C(=O)CCOC)[C@H](C)C6)nc5C5CC5)cccc4n3)cccc2n1` [Compound 604, (R,E)-6-cyclopropyl-2-(4-(3-methoxypropanoyl)-3-methylpiperazin-1-yl)-5-(2-(2-(2-vinylquinoxalin-5-yl)vinyl)quinoxalin-5-yl)nicotinonitrile], the IC50 in assay [1] and in assay [2] was less than 500 nM throughout.
On to `C=Cc1cc(-c2cc(C#N)c(N3CCN(C(=O)CCC(OC)OC)[C@H](C)C3)nc2C2CC2)ccn1` [Compound 606, (R)-2-cyclopropyl-6-(4-(4,4-dimethoxybutanoyl)-3-methylpiperazin-1-yl)-2′-vinyl-[3,4′-bipyridine]-5-carbonitrile], for which the IC50 in assay [1] and in assay [2] was less than 500 nM throughout.
As to `C=Cc1cc(-c2cc(C#N)c(N3CCN(C(=O)CCC=O)[C@H](C)C3)nc2C2CC2)ccn1` [Compound 607, (R)-2-cyclopropyl-6-(3-methyl-4-(4-oxobutanoyl)piperazin-1-yl)-2′-vinyl-[3,4′-bipyridine]-5-carbonitrile], the IC50 in assay [1] and in assay [2] was less than 500 nM in each case.
As for `C=Cc1ncccc1-c1cc(C#N)c(N2CCN(C(=O)CCOC)[C@H](C)C2)nc1C1CC1` [Compound 619, (R)-2-cyclopropyl-6-(4-(3-methoxypropanoyl)-3-methylpiperazin-1-yl)-2′-vinyl-3,3′-bipyridine-5-carbonitrile], the IC50 in assay [1] and in assay [2] was less than 500 nM in each case.
